According to PMC2667487, “Cellular localization of kinin B1 receptor in the spinal cord of streptozotocin-diabetic rats with a fluorescent [N^α-Bodipy]-des-Arg^9-bradykinin” (Journal of Neuroinflammation, 2009):
“And” between values parts separate entries of the source, which are not always exact repeats. Equal entries are not always repeated. “Also recorded” adds a separate entry of the source. Square brackets hold non-standard residues; d marks the D form. Peptide text beside a SMILES is read from it. d2Nal = N[C@H](Cc1ccc2ccccc2c1)C(=O)O

Tests used:
[1] = test system: B1R mRNA in thoracic spinal cord; experiment: B1R mRNA expression, SYBR green-based quantitative RT-PCR; design: species or system rat; conditions: STZ 65 mg/kg i.p., 4 days, 18S reference, means of 3 to 6 rats
Protocol: (§1) Rats were used 5 days after their arrival and injected under low light with freshly prepared STZ (65 mg/kg; i.p.; Sigma-Aldrich, Oakville, ON, Canada). Age-matched controls were injected with vehicle (sterile saline 0.9%, pH. 7.0). Glucose concentrations were measured, with a commercial blood glucose-monitoring kit (Accusoft; Roche Diagnostics, Laval, Que., Canada), in blood samples obtained from the tail vein, in non-fasting animals, before STZ injection, and 4 days after treatment. Only STZ-treated rats whose blood glucose concentration was higher than 20 mM were considered as diabetic.
Four days after injection of STZ, rats were anaesthetized with CO2 inhalation and then decapitated. […] First-strand cDNA synthesized from 400 ng total RNA with random hexamer primers was used as template for each reaction with the QuantiTect Rev Transcription Kit (QIAGEN). SYBR Green-based real-time quantitative PCR using Mx3000p device for signal detection (Stratagene, La Jolla, CA, USA) was performed as described. […] For standardization and quantification, rat 18S was amplified simultaneously. […]
PCR conditions were as follows: 95°C for 15 min, followed by 46 cycles at 94°C for 15 s, 60°C for 30 s and 72°C for 30 s. […] The relative quantification of gene expression was analyzed by the 2^-ΔΔCt method.

[2] = test system: B1R binding sites in thoracic spinal cord; experiment: density of specific B1R binding sites, quantitative autoradiography; design: species or system rat; conditions: STZ 65 mg/kg i.p., 4 days, 7 to 8 rats
Protocol: as §1
The radioligands for kinin B1R, HPP-desArg^10-Hoe140 (3-(4 hydroxyphenyl) propionyl-desArg^9-D-Arg^0 [Hyp^3, Thi^5, D-Tic^7, Oic^8]Bradykinin) and kinin B2R, HPP-Hoe140 (3-(4 hydroxyphenyl) propionyl-D-Arg^0 [Hyp^3, Thi^5, D-Tic^7, Oic^8]Bradykinin) were synthesized and kindly provided by Dr Witold Neugebauer (Dept Pharmacology, University of Sherbrooke, Sherbrooke, Que., Canada). They were iodinated by the chloramine T method. […] Autoradiograms were quantified by densitometry using an MCID™ image analysis system (Imaging Research, St. Catharines, ON, Canada). […] Specific binding was determined by subtracting values of nonspecific binding from that of total binding.

kinin B1R = target: T1, kinin B1R (Rattus norvegicus, UniProt P97583); experiment: competition curves by quantitative autoradiography, displacement of [^125I]-HPP-desArg^10-Hoe 140 (B1R); conditions: 200 pM [^125I]-HPP-desArg^10-Hoe 140, competitor 10^-10 to 10^-6 M, thoracic spinal cord sections of STZ-treated rats, 90 min, room temperature, 25 mM PIPES-NH4OH pH 7.4; means ± SEM, 4 sections per rat from 7 rats; read-out: IC50, inhibition of total B1R binding sites
T1 construct: from tissue; host or cells: rat spinal cord sections (autoradiography)
T1 sequence (P97583 1-337): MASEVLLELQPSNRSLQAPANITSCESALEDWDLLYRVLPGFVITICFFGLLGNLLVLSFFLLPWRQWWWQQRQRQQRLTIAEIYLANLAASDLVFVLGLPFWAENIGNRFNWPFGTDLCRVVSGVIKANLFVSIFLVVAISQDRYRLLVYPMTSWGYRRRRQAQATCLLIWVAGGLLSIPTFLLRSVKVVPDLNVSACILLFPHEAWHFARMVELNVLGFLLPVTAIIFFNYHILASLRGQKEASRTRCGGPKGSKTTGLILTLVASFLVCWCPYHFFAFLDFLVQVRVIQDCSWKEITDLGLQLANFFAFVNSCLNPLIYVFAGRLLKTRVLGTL
Protocol: (§2) They were iodinated by the chloramine T method. […] At the end of the incubation period, slides were transferred sequentially through four rinses of 4 min each in 25 mM PIPES (pH 7.4; 4°C) dipped for 15s in distilled water (4°C) to remove the excess of salts, and then air-dried. Kodak Scientific Imaging Films BIOMAXTM MR® (Amersham Pharmacia Biotech Canada) were juxtaposed onto the slides in the presence of [^125I]-microscales and exposed at room temperature for 7 days. The films were developed (GBX developer) and fixed (GBX fixer). Autoradiograms were quantified by densitometry using an MCIDTM image analysis system (Imaging Research, St. Catharines, ON, Canada). A standard curve from [^125I]-microscales was used to convert density levels into fentomoles per milligram of protein [48]. Specific binding was determined by subtracting values of nonspecific binding from that of total binding. […] Each concentration of each competitor was tested on 4 sections per rat from 7 different rats. Those sections were exposed to the film, and total binding was calculated as described above. […] All data were expressed as means ± S.E.M. obtained from n rats. Statistical significance was determined with Student's t-test for unpaired samples or a one-way analysis of variance (ANOVA) followed by post-hoc Dunnett test for multiple comparisons.

kinin B2R = target: T2, kinin B2R (Rattus norvegicus, UniProt P25023); experiment: competition curves by quantitative autoradiography, displacement of [^125I]-HPP-Hoe 140 (B2R); conditions: 200 pM [^125I]-HPP-Hoe 140, competitor 10^-10 to 10^-6 M, thoracic spinal cord sections of STZ-treated rats, 90 min, room temperature, 25 mM PIPES-NH4OH pH 7.4; means ± SEM, 4 sections per rat from 7 rats; read-out: IC50, displacement of B2R binding sites
T2 construct: from tissue; host or cells: rat tissue sections (spinal cord, autoradiography)
T2 sequence (P25023 1-396): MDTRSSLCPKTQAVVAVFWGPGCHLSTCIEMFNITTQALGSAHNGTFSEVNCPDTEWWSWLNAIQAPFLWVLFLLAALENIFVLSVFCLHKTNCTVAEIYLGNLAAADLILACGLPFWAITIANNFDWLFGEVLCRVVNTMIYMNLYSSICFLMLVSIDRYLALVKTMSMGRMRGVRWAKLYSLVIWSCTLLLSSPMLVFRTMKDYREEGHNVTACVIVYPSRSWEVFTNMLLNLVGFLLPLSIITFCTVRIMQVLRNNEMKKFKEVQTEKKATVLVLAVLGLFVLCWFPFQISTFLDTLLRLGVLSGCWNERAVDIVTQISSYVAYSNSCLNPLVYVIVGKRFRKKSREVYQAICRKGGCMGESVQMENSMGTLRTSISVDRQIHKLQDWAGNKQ
Protocol: as §2

B1R = conditions: cited from earlier work
From the text: (§3) Importantly, the development of tactile and cold allodynia in a rat model of insulin-resistance was blocked by the B1R antagonist SSR240612 [28] and by two antioxidants (N-acetyl-L-cysteine and alpha-lipoic acid) ...

[3] = test system: rat model of insulin-resistance; conditions: cited from earlier work
From the text: as §3

[4] = test system: B1R in thoracic spinal cord; experiment: BdABK fluorescent labeling of B1R and its displacement, confocal microscopy; assay type: binding, rat; conditions: STZ-treated thoracic spinal cord, BdABK 50 μM co-incubated with 10^-5 M antagonist
Protocol: On the day of experiments, sections were thawed at room temperature for 10 min to enhance sections adhesion. They were pre-incubated for 10 min in 25 mM PIPES-NH4OH buffer (pH 7.4) to allow degradation of endogenous kinins which could occupy receptors. Sections were exposed for 90 min to 50 μM BdABK. Thereafter, slides were washed twice (1 min) in PIPES and fixed with 4% para-formaldehyde. Slides were washed three times (5 min) and then exposed to 1 M of glycine for 90 min to eliminate autofluorescence from aldehyde-fixed tissue. […] Each concentration of each competitor was tested on 4 sections per rat from 7 different rats. Those sections were exposed to the film, and total binding was calculated as described above.

## CN(N=O)C(=O)N[C@H]1C(O)O[C@H](CO)[C@@H](O)[C@@H]1O (mixture of isomers) [STZ, streptozotocin]
[1]
  B1R mRNA expression increase (fold change vs control): 18 fold and 18.1 fold
[2]
  B1R binding sites, fold vs control: 2.7 fold

## CC1=CC(C)=[N+]2C1=Cc1ccc(CCC(=O)N[C@@H](CCCNC(=N)N)C(=O)N3CCC[C@H]3C(=O)N3CCC[C@H]3C(=O)NCC(=O)N[C@@H](Cc3ccccc3)C(=O)N[C@@H](CO)C(=O)N3CCC[C@H]3C(=O)N[C@@H](Cc3ccccc3)C(=O)O)n1[B-]2(F)F [BdABK, [N^α-Bodipy]-des-Arg^9-BK]
Kinin B1R
  IC50: 5.3 nM

## NC(N)=NCCC[C@@H](N)C(=O)N[C@@H](CCCN=C(N)N)C(=O)N1CCC[C@H]1C(=O)N1C[C@H](O)C[C@H]1C(=O)NCC(=O)N[C@@H](Cc1cccs1)C(=O)N[C@@H](CO)C(=O)N1Cc2ccccc2C[C@@H]1C(=O)N1[C@H](C(=O)N[C@@H](CCCN=C(N)N)C(=O)O)C[C@@H]2CCCC[C@@H]21 [Hoe 140]
Kinin B2R
  IC50: 1.33 ± 0.1 nM

## CC(=O)N[C@@H](CS)C(=O)O [N-acetyl-L-cysteine]
B1R
  induction of B1R, antioxidants: prevent the induction of B1R
[3]
  development of tactile and cold allodynia, antioxidants: blocked

## CC[C@H](C)[C@H](NC(=O)[C@@H](Cc1ccc2ccccc2c1)NC(=O)[C@H](CO)NC(=O)[C@H](Cc1ccccc1)NC(=O)CNC(=O)[C@@H]1CCCN1C(=O)[C@@H]1CCCN1C(=O)[C@H](CCCN=C(N)N)NC(=O)[C@H](CCCCN)NC(C)=O)C(=O)O [R-715, AcLys [D-βNal^7, Ile^8]des-Arg^9-BK] (Ac-KRPPGFS[d2Nal]I-OH)
Kinin B1R
  IC50: 4.3 nM

## CCN(C(=O)[C@@H](Cc1ccc(CN2[C@H](C)CCC[C@@H]2C)cc1)NC(=O)C[C@@H](NS(=O)(=O)c1ccc2cc(OC)ccc2c1)c1ccc2c(c1)OCO2)C(C)C.Cl [SSR240612]
[4]
  displacement of BdABK labeling by B1R antagonist: absence of BdABK labeling; also recorded: B1R labeling was absent; also recorded: elimination of B1R labeling
[3]
  development of tactile and cold allodynia: blocked

## O=C(O)CCCCC1CCSS1 (stereo not drawn) [alpha-lipoic acid]
B1R
  induction of B1R, antioxidants: prevent the induction of B1R
[3]
  development of tactile and cold allodynia, antioxidants: blocked

## N=C(N)NCCC[C@H](N)C(=O)N1CCC[C@H]1C(=O)N1CCC[C@H]1C(=O)NCC(=O)N[C@@H](Cc1ccccc1)C(=O)N[C@@H](CO)C(=O)N1CCC[C@H]1C(=O)N[C@@H](Cc1ccccc1)C(=O)O [des-Arg^9-BK]
Kinin B1R
  IC50: 19 nM
